# Key:
# PMNL = experiment: fMLP-induced Ca2+ influx in PMNL; type: cell-based, human
# Protocol: PMNL (1 × 10^6) were loaded with Fura-2/AM (2 nmol, Thermo Fisher Scientific) for 45 min at 37 °C. […] Intracellular Ca^2+ concentrations were measured using a NOVOstar fluorescence microplate reader (BMG Labtech, Ortenberg, Germany) at 37 °C. The emission wavelength was set to 510 nm and the excitation wavelengths to 340 nm (Ca^2+-bound Fura-2) and 380 nm (free Fura-2).[23] To define 100% Ca^2+ influx, the difference between the maximal influx (cell lysis by Triton X-100) and minimal influx (subsequent chelation of Ca^2+ by EDTA) was measured for each experiment.
# mPGES-1 = mPGES-1 (Homo sapiens, UniProt O14684); experiment: mPGES-1 activity in microsomal preparations of IL-1β-treated A549 cells; type: biochemical; details: 10 μM
# Protocol: Confluent cells were detached by trypsin-EDTA (GE Healthcare) and reseeded at a density of 1 × 10^4 cells/cm^2.
# Differential centrifugation at 10 000g for 10 min and 174 000g for 1 h at 4 °C yielded the microsomal fraction. The pellet was resuspended in homogenization buffer and diluted in 0.1 M potassium phosphate buffer pH 7.4 containing 2.5 mM glutathione. Microsomal membranes (adjusted to 2.5–5 μg total protein) were preincubated with 27a for 15 min at 4 °C. The mPGES-1 substrate PGH2 (20 μM) was added to induce PGE2 formation.
# COX-1 = target: T1, COX-1 (Homo sapiens, UniProt P23219); experiment: Platelet COX-1 activity (12-HHT formation); type: cell-based
# T1 construct: Freshly isolated platelets (1 × 10^8) were preincubated with vehicle (DMSO) or 27a; endogenous in cells; host or cells: freshly isolated human platelets
# Protocol: Freshly isolated platelets (1 × 10^8) were preincubated with vehicle (DMSO) or 27a for 5 min at room temperature. Arachidonic acid (5 μM) was added to induce 12-HHT formation.
# [1] = Concentrations and metabolism of compound in mice with zymosan-induced peritonitis; type: in vivo
# Protocol: LCMs, 27a, and 27a metabolites were extracted from PMNL, medium of the liver-on-chip, murine plasma, peritoneal exudate, or homogenized murine tissue as described.[6] In brief, PBS pH 7.4, methanol, chloroform, and saline (final ratio: 14:34:35:17) were successively added together with 13d (9 pmol) as the internal standard. The organic layer was evaporated, and the extracted LCMs were dissolved in methanol.
# LCMs, 27a, and 27a metabolites were separated at a flow rate of 0.8 mL/min and a column temperature of 45 °C, with acetonitrile/H2O (10:90) as mobile phase A and acetonitrile as mobile phase B, both acidified with 0.07% formic acid. The linear gradient from A/B = 50:50 to 0:100 within 4.5 min was followed by isocratic elution with A/B = 0:100 for 1 min. MS parameters were adjusted according to Pein et al.[6] and as detailed in Table S3. Signal intensities were normalized to the internal standard 13d, and concentrations were calculated using external calibration curves as specified in Table S3.
# Zymosan (2 mg/mL in saline, i.p., 0.5 mL, Sigma-Aldrich) was injected at 30 min (i.p.) or 60 min (p.o.) post compound administration. Mice were sacrificed by inhalation of CO2 after another 30 min to determine LTC4 levels, lipid mediator profiles, metabolites, and vascular permeability and after 4 h to analyze LTB4 levels and cell infiltration.[72] Plasma and peritoneal exudates were collected, and cells were counted in exudates after trypan blue staining. Vascular permeability was measured by injection of Evans blue dye (40 mg/kg in saline, 0.3 mL, Sigma-Aldrich) into the tail vain directly before peritonitis induction.[72] The exudate was centrifuged (3000g, 5 min), and the absorbance was measured at 610 nm (DU730 spectrophotometer, Beckman Coulter, Krefeld, Germany). Levels of LTB4 and cysteinyl-LTs (dominated by LTC4) were quantified in the exudate by ELISA (Enzo Life Sciences, Lörrach, Germany) according to the manufacturer’s instructions. Compound 27a, its metabolites, and lipid mediators were extracted and analyzed by UPLC-MS/MS.
# T1 sequence (P23219 24-599): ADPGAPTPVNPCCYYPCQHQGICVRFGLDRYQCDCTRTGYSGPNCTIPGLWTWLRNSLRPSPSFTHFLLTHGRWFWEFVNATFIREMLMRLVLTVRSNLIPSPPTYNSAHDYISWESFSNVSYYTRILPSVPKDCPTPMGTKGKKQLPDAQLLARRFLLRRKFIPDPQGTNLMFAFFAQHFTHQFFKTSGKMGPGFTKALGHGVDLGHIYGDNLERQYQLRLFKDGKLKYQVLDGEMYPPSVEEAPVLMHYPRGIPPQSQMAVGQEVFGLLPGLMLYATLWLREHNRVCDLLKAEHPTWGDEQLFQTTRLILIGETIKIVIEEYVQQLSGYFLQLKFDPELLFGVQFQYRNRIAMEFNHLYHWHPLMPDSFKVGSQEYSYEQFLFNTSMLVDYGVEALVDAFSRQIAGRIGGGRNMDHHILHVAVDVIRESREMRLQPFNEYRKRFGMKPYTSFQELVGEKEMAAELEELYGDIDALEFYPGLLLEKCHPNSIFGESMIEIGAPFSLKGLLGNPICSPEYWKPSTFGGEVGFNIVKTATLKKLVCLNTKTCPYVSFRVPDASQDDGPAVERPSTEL
# mPGES-1, sequence (O14684 whole entry): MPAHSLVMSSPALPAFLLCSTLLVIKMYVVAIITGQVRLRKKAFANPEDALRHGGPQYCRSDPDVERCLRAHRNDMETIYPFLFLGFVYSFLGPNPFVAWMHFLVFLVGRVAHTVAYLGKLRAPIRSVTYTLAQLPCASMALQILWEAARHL
smiles,measurement,setting,value
"C/C(=C\CC/C(C)=C/CC[C@]1(C)CCc2c(C)c(O)c(C)c(C)c2O1)CCC=C(CO)CO [Compound 27a, α-amplexichromanol]",Ca2+ influx,PMNL; 10 μM,substantially reduced
same,Intracellular levels of Ca2+,PMNL; submicromolar concentrations (≤1 μM),nor influenced intracellular levels of Ca^2+
same,mPGES-1 activity,mPGES-1,decreased mPGES-1 activity
same,COX-1 inhibition within human platelets,COX-1,not substantially inhibited
same,concentration at 90 min,"[1]; CD-1, mouse, plasma, po, mice with acute peritonitis, 10 mg/kg p.o., 90 min post administration",0.03 to 0.9 µM
same,Side-chain degradation in mice,"[1]; mice, 10 mg/kg p.o., plasma",resistant to degradation
same,Time to uptake after oral administration,"[1]; mice, p.o.",≤ 1 h
same,Concentrations in the peritoneal exudate,"[1]; mice, peritonitis, oral administration 30 mg/kg",0.0005 to 0.004 µM

# — PMC8365602 (Journal of Medicinal Chemistry, 2021)
